Measured values taken from patent US11891374B2, “Derivatized benzimidazole compounds, their salts, their complexes, their pharmaceutical compositions and methods for using them for antigeriatric actions” (priority 2020, dated 2024).

Tests used:
[1] = tested on: imidazoline receptors of all subtypes; conditions: cited from earlier work
[2] = tested on: Drosophila fruit flies; conditions: in vivo

SMILES	concentration range of binding to imidazoline receptors [1]	MLS (day) Females [2]	MLS (day) Males [2]	extension of lifespan / MLS versus control [2]	lifespan of Drosophila extended to [2]
N=C(N)NCCCCN [Agmatine, N-(4-aminobutyl)guanidine]	0.5 to 5 mM	–	–	–	–
Cc1cc(C)c2c(c1)nc(Cn1c3ccccc3c(=O)c3ccccc31)n2C [XVg]	–	67 ± 9 days	66 ± 9 days	~3 fold	70 days
